Assay results published in US20230382934A1, “HIGH ENTROPY OXIDES AND METHODS OF SYNTHESIS AND USE THEREOF” (Auburn University, priority 2022, published 2023).

Assays:
[1] = T1-weighted relaxivity response to H2O2, 3 T clinical MRI scanner; details: Example 1, Mn(II) complex with H4qp4
Description: The relaxivities of complex 1 before and during its reaction with H2O2 were assessed using a 3 T MRI scanner (FIG. 27D). T1 values were measured for aqueous solutions containing 0-1.0 mM 1 and 50 mM HEPES buffered to pH 7.00. For each concentration of 1, an oxidized sample was also prepared by adding 10 mM H2O2; the large excess of oxidant was used to ensure as full a turn-on as possible at the timepoints and to facilitate comparisons to manganese-containing MRI contrast agents that were previously prepared and characterized. The T1 values for the H2O2-containing solutions were measured 1 h and 2 h after the reagents were initially mixed. Full series of data were collected for two independently prepared batches of 1 in order to confirm that the results were replicable.
The MRI properties of 1 were assessed using methods that were previously employed in studies of manganese-containing MRI contrast agents. The relaxivity of 1 was measured before and after its reaction with excess H2O2 using a 3 T MRI scanner (FIG. 51). The r1 for the pre-activated complex was calculated from the T1 values of aqueous solutions containing 50 mM HEPES buffered to pH 7.00 and 0-1 mM 1. T1 measurements were also acquired for oxidized samples that contained 10 mM H2O2 in addition to the aforementioned reagents. The T1 values were measured 30 min and 60 min after the solution samples were initially prepared. […]

[2] = Catalase activity (degradation of H2O2, absorbance at 240 nm); format: biochemical; details: Mn(II) complex, 100 nM, 10 mM H2O2, 100 mM phosphate pH 7.0
Description: (§1) FIG. 31 depicts representative kinetic traces for the reaction between 100 nM 1 and 10 mM H2O2 in 100 mM phosphate solution buffered to pH 7.0. The absorbance at 240 nm was monitored over time. Activity values were calculated using the UV-1601PC Kinetics program and converted to an initial rate (vo/[1]T) using the following equation: vo/[1]T=(activity)/[60 s×0.01 μM×0.0000394 μM^−1 cm^−1×1.0 cm].
as §1, with “FIG. 66” for “FIG. 31”, “in 200” for “in 100”, “vo/[1]T=(activity)/[60 s×0.1” for “vo/[1]T=(activity)/[60 s×0.01”, “cm^−1×1.0 cm]” for “cm^−1×1.0 cm].”
FIG. 67, comprising FIG. 67A and FIG. 67B, depicts a Michaelis-Menten fit of the activity of 1. FIG. 67A depicts activity of 1 with increasing concentrations of H2O2. All reactions were performed in 200 mM phosphate buffered to pH 7.0 at 25° C. with an initial 100 nM concentration of 1. […]
In order to assess the ability of the Mn(II) complex to catalyze the degradation of H2O2, we reacted 100 nM 1 with 10 mM H2O2 in 100 mM phosphate solution buffered to pH 7.0 and monitored the absorbance at 240 nm over time. […] The consumption of H2O2 was evaluated using a UV-1601 Shimadzu spectrophotometer.

(1,8-Bis(2,5-dihydroxybenzyl)-1,4,8,11tetraazacyclotetradecane)manganese(II) triflate [Complex 1]
increase in r1 upon oxidation by H2O2 [1]: 130% | initial rate vo/[1]T [2]: 6600 s⁻¹
